Data: PMC9551036, “A selective and orally bioavailable VHL-recruiting PROTAC achieves SMARCA2 degradation in vivo” (Nature Communications, 2022)
Several values for one entry are separate records, joined by “and”; a condition that tells them apart may be missing. Equal values may be shown once. Read-outs that look alike come from different tables or passages of the source.

Legend:
[1] = target: VCB: PROTAC: SMARCA4^BD ternary complex (Homo sapiens, UniProt P40337+P51532); test: TR-FRET ternary complex affinity and cooperativity, SMARCA4; type: binding; set-up: P51532, residues 1448–1569 with additional N-terminal SM residues; GST (TEV site) (N); His6 (TEV site) (N, cleaved yes); made in house; host or cells: SMARCA4^BD: Escherichia coli BL21(DE3)
VCB: PROTAC: SMARCA4^BD ternary complex, sequence (P51532 1448-1569): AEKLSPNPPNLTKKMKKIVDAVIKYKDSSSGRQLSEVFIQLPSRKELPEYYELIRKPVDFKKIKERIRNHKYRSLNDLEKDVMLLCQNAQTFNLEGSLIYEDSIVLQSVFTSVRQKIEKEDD
VCB: PROTAC: SMARCA4^BD ternary complex, sequence (P40337 54-213): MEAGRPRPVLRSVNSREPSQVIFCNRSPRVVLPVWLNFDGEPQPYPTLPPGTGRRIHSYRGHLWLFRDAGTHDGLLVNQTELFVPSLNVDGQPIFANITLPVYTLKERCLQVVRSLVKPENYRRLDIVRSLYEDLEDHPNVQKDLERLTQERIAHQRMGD
VCB: PROTAC: SMARCA4^BD ternary complex, sequence (Q15369 17-112 partner): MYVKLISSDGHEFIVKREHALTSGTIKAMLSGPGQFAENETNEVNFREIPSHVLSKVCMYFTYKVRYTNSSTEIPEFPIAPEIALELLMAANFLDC
VCB: PROTAC: SMARCA4^BD ternary complex, sequence (Q15370 1-104 partner): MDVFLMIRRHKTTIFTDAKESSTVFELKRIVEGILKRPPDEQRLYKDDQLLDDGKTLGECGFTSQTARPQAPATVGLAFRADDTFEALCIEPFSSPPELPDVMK

SMARCA4 = SMARCA4 (Homo sapiens, UniProt P51532); test: SMARCA4 capillary electrophoresis protein assay in RKO cells; type: cell-based; set-up: endogenous in cells; host or cells: RKO, HCT116, LU99, HCC-364, HCT-15, HCC4006, SK-N-AS; conditions: mean ± SD; for Dmax: RKO
SMARCA4, sequence (P51532 whole entry): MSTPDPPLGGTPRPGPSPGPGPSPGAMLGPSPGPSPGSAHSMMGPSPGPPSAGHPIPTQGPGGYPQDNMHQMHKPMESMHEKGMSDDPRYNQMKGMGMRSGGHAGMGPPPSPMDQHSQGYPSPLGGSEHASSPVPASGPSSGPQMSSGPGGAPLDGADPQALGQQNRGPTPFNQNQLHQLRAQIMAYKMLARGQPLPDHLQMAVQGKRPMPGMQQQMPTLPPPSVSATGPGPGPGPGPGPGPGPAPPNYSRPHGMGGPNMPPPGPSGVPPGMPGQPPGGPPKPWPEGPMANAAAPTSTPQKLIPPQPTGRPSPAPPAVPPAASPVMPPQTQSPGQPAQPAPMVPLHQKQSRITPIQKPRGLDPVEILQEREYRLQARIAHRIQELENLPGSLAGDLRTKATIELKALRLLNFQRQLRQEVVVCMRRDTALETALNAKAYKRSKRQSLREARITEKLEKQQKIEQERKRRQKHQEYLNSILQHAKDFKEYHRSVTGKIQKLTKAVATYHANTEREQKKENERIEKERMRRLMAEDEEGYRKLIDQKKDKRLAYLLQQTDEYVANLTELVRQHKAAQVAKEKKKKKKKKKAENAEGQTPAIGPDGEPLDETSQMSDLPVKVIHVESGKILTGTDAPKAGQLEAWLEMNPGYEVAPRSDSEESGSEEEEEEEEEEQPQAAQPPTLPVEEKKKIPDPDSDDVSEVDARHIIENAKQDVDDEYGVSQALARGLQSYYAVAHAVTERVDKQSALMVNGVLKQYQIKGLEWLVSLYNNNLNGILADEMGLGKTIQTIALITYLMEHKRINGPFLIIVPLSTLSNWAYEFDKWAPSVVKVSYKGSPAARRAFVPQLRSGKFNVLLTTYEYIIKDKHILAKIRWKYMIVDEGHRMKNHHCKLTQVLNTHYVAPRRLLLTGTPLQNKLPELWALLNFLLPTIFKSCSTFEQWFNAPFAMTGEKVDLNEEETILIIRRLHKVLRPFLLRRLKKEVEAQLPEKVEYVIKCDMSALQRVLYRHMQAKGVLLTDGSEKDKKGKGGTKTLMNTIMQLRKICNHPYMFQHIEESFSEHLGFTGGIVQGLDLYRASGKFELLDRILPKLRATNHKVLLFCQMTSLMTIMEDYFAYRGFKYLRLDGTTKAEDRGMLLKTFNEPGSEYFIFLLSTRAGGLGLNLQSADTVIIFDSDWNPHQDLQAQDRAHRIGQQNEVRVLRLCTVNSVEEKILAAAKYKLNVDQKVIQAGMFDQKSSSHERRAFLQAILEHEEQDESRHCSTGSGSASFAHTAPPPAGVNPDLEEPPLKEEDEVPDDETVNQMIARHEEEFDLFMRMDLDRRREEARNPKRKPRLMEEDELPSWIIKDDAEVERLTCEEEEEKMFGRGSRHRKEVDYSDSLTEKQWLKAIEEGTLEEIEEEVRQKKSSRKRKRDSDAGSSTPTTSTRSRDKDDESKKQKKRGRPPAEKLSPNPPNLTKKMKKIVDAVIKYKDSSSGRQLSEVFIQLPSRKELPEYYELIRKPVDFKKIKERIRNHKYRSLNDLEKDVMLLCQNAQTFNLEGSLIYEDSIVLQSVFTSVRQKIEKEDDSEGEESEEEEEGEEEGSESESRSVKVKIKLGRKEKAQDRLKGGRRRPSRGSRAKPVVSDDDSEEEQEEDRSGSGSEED
Procedure: (§1) 130,000–200,000 cells were seeded in 24-well plates and incubated until settled down or overnight. Compounds were dissolved in DMSO and added to cells in indicated concentrations using a digital dispenser following an optional media change. Cells were incubated for 4 or 18 h as indicated. For SMARCA2/4 half-life determination, 150,000 or 200,000 cells were seeded in 24-well plates. The next day, 50 µg/ml cycloheximide (Sigma) was added and cells were incubated for 1–24 h. For SMARCA2/4 re-synthesis measurements, 200,000 cells were seeded in 24-well plates. The next day, 100 nM compound 6 was added for 4 h to degrade SMARCA2/4, and a sample was taken as baseline for normalisation. To allow re-synthesis, a VHL binder (compound 32, 25 or 50 µM) was then added for 3 or 24 h. Medium was removed, cells were washed with PBS and lysed with 80 µl Lysis Buffer (MSD Tris Lysis Buffer (#R60TX-2) + Halt Inhibitor Cocktail (100x) + Benzonase 0.5 µL/ml). Samples were frozen at −80 °C and thawed at room temperature before use. Samples were transferred to a V-bottom plate and insoluble debris was pelleted by centrifugation for 5 min at maximum speed. The supernatant was transferred to a fresh plate. Master Mix and Ladder were prepared according to manufacturer’s instructions for 12–230 kDa Wes Separation Module, 8 × 25 capillary cartridges, Protein Simple #SM-W004 with Anti-Rabbit Detection Module for Wes, Peggy Sue or Sally Sue, Protein Simple #DM-001. 4.8 µl lysate were mixed with 1.2 µl Master Mix to achieve a protein concentration of ~0.5 µg/µl. Antibodies were diluted in Antibody Diluent II (SMARCA2 Sigma #HPA029981 RRID:AB_10602406 1:25–100, SMARCA4 Cell Signalling #49360 clone D1Q7F RRID:AB_2728743 1:15–120 or Abcam #ab110641 clone EPNCIR111A RRID:AB_10861578 1:60, GAPDH Abcam #ab9485 RRID:AB_307275 1:250). Wes plates were prepared and run according to manufacturer’s instructions. Proteins were quantified with accompanying Compass Software. SMARCA2/4 protein levels were normalised to GAPDH. […] Where applicable, curves were fitted using a 4-parametric logistic model.

SMARCA2 = SMARCA2 (Homo sapiens, UniProt P51531); test: SMARCA2 capillary electrophoresis protein assay in RKO cells; type: cell-based; set-up: endogenous in cells; host or cells: RKO, NCI-H1568, A549, HCT116, LU99, HCC-364, HCT-15, HCC4006, SK-N-AS; conditions: for DC50 / Dmax / SMARCA2 Dmax: mean ± SD; for Dmax: RKO
SMARCA2, sequence (P51531 whole entry): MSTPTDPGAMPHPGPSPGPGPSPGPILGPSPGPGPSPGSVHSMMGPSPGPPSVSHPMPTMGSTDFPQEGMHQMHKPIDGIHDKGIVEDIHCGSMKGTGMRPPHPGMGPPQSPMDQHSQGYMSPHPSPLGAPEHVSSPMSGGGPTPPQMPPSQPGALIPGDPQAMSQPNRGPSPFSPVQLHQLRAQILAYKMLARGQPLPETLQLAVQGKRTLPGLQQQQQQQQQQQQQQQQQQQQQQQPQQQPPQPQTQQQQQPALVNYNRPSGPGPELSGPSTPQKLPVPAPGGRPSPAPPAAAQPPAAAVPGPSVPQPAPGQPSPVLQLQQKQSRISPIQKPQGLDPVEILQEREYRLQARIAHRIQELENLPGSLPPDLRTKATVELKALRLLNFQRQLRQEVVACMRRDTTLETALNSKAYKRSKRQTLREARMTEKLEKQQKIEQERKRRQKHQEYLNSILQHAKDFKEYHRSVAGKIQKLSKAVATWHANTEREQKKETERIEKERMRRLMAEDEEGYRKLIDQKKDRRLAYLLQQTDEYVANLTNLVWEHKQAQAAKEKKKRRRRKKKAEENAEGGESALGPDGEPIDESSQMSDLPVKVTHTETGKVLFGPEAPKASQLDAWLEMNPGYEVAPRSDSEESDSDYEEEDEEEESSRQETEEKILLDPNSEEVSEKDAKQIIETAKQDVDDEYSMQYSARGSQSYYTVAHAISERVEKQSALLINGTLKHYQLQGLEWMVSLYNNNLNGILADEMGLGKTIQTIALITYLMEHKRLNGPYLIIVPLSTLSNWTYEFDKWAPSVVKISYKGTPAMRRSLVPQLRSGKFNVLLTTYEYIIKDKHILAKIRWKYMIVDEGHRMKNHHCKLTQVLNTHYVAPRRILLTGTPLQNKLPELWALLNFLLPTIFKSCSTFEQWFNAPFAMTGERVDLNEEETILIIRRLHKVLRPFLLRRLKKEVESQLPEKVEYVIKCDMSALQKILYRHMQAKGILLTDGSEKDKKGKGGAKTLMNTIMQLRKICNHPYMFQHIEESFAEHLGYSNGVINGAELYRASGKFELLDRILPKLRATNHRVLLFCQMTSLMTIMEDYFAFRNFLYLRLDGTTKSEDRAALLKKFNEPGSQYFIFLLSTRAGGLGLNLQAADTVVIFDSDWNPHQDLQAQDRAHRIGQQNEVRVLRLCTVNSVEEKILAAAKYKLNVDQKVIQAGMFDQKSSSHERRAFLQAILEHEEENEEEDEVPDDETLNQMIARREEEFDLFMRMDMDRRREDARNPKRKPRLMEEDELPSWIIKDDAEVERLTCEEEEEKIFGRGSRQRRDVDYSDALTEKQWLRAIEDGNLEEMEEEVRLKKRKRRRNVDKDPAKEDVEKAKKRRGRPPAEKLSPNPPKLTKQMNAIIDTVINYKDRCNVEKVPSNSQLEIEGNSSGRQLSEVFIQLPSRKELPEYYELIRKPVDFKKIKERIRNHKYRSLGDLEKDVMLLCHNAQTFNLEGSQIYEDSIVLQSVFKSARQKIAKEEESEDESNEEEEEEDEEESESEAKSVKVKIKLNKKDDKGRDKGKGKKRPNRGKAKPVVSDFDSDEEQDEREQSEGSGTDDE
Procedure: as §1, with “Cells were incubated for 4 or 18 h as indicated.” left out, “The next day, 50 µg/ml cycloheximide (Sigma) was added and cells were incubated for 1–24 h.” left out, “The next day, 100 nM compound 6 was added for 4 h to degrade SMARCA2/4, and a sample was taken as baseline for normalisation. To allow re-synthesis, a VHL binder (compound 32, 25 or 50 µM) was then added for 3 or 24 h.” left out, “Antibodies were diluted in Antibody Diluent II (SMARCA2 Sigma #HPA029981 RRID:AB_10602406 1:25–100, SMARCA4 Cell Signalling #49360 clone D1Q7F RRID:AB_2728743 1:15–120 or Abcam #ab110641 clone EPNCIR111A RRID:AB_10861578 1:60, GAPDH Abcam #ab9485 RRID:AB_307275 1:250).” left out

PBRM1BD5 = target: T1, PBRM1BD5 (Homo sapiens, UniProt Q86U86); test: TR-FRET ternary complex affinity and cooperativity, PBRM1; type: binding; conditions: TR-FRET competition for PBRM1BD5, without VCB; mean ± SD; read-out: TR-FRET PBRM1BD EC50
T1 construct: GST (TEV site) (N); His6 (TEV site) (N, cleaved yes); made in house; host or cells: PBRM1^BD5: Escherichia coli BL21(DE3)
T1 sequence (Q86U86 645-766): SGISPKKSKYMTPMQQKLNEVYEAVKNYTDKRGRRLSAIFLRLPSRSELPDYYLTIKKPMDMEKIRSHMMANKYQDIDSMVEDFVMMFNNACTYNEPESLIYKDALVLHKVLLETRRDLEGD

[2] = target: VCB: PROTAC: SMARCA2^BD ternary complex (Homo sapiens, UniProt P40337+P51531); test: TR-FRET ternary complex affinity and cooperativity, SMARCA2; type: binding; set-up: P51531-2, residues 1373-1493 with additional N-terminal SM residues; GST (TEV site) (N); His6 (TEV site) (N, cleaved yes); made in house; host or cells: SMARCA2^BD: Escherichia coli BL21(DE3)
VCB: PROTAC: SMARCA2^BD ternary complex, sequence (P51531 with tags, fused parts or gaps isoform P51531-2): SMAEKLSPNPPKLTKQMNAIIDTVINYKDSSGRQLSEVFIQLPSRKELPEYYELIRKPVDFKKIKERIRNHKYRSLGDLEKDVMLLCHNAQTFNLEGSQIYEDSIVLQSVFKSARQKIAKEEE
VCB: PROTAC: SMARCA2^BD ternary complex, sequence (P40337 54-213): as the sequence (P40337 54-213) above
VCB: PROTAC: SMARCA2^BD ternary complex, sequence (Q15369 17-112 partner): as the sequence (Q15369 17-112 partner) above
VCB: PROTAC: SMARCA2^BD ternary complex, sequence (Q15370 1-104 partner): as the sequence (Q15370 1-104 partner) above

[3] = PROTAC + VCB, individual replicates, read-out: Ternary SMARCA4 BD EC50 (PROTAC + VCB)
[4] = TR-FRET competition for SMARCA4BD, + VCB, mean ± SD, read-out: TR-FRET Ternary SMARCA4BD EC50 (PROTAC + VCB)
[5] = PROTAC + VCB, individual replicates, read-out: Ternary SMARCA2 BD EC50 (PROTAC + VCB)
[6] = TR-FRET competition for SMARCA2BD, + VCB, mean ± SD, read-out: TR-FRET Ternary SMARCA2BD EC50 (PROTAC + VCB)

| SMILES | EC50 [1, 3] | EC50 [1, 4] [nM] | DC50 (SMARCA4; RKO (4 h)) [nM] | DC50 (SMARCA4; RKO (18 h)) [nM] | DC50 (SMARCA2; RKO (4 h)) [nM] | DC50 (SMARCA2; RKO (18 h)) [nM] | EC50 (PBRM1BD5) [nM] | EC50 [2, 5] | EC50 [2, 6] [nM] | Dmax (SMARCA4; RKO (4 h)) [%] | Dmax (SMARCA4; RKO (18 h)) [%] | Dmax (SMARCA2; RKO (4 h)) [%] | Dmax (SMARCA2; RKO (18 h)) [%] | SMARCA2/4 selectivity improvement on linker elongation (compound 11 compared with compound 6) (SMARCA2; all-carbon linker series) | SMARCA4 Dmax (SMARCA4; RKO (4 h)) [%] | SMARCA4 Dmax (SMARCA4; RKO (18 h)) [%] | SMARCA2 Dmax (SMARCA2; RKO (4 h)) [%] | SMARCA2 Dmax (SMARCA2; RKO (18 h)) [%] |
| --- | --- | --- | --- | --- | --- | --- | --- | --- | --- | --- | --- | --- | --- | --- | --- | --- | --- | --- |
| Nc1cccc2c1c(=O)nc1n(C3CCCC3)c3ccccc3n21 [compound 2] | 2270 nM and 2610 nM and 2110 nM | 2320 | > 25000 | > 25000 | > 25000 | > 25000 | 1000 | 1910 nM and 2000 nM and 1540 nM and 2490 nM | 1950 | – | – | – | – | – | – | – | – | – |
| Cc1ncsc1-c1ccc([C@H](CCCCCN2CCC(c3ccc4c(c3)n(C3CCCC3)c3nc(=O)c5c(Br)cccc5n43)CC2)NC(=O)[C@@H]2C[C@@H](O)CN2C(=O)[C@@H](NC(=O)C2(F)CC2)C(C)(C)C)cc1 [compound 11] | 65.3 nM and 77.7 nM and 60.4 nM | 67 ± 9 | 15 ± 9 | 12 ± 3 | 2 ± 1 | 1 ± 0.1 | 41 ± 8 | 26.6 nM and 19.7 nM and 14.3 nM and 29.6 nM and 31.9 nM and 31.5 nM and 26.3 nM and 35.9 nM and 20.9 nM and 21.5 nM and 24.4 nM | 25 ± 6 | 53 ± 16 | 78 ± 11 | 73 ± 6 | 87 ± 2 | two- to threefold | – | – | – | – |
| CN1CCN(c2nc(=O)c3c(Br)cccc3o2)CC1 [compound 15] | > 10000 nM | – | > 25000 | > 25000 | > 25000 | > 25000 | > 10000 | > 10000 nM | – | – | – | – | – | – | – | – | – | – |
| Cc1ncsc1-c1ccc(CNC(=O)[C@@H]2C[C@@H](O)CN2C(=O)[C@@H](NC(=O)C2(F)CC2)C(C)(C)C)c(OCCN2CCC(c3ccc4c(c3)n(C3CCCC3)c3nc(=O)c5c(Br)cccc5n43)CC2)c1 [compound 20] | 312 nM and 310 nM and 294 nM and 321 nM | 309 ± 11 | > 25000 | > 25000 | > 25000 | > 25000 | 38 ± 4 | 140 nM and 137 nM and 122 nM and 109 nM and 217 nM | 141 ± 42 | – | – | – | – | – | – | – | – | – |
| Cc1ncsc1-c1ccc([C@H](CC[C@@H](C)CCN2CCC(c3ccc4c(c3)n(C3CCCC3)c3nc(=O)c5c(Br)cccc5n43)CC2)NC(=O)[C@@H]2C[C@@H](O)CN2C(=O)[C@@H](NC(=O)C2(F)CC2)C(C)(C)C)cc1 [compound 29] | 49.3 nM and 72.5 nM and 61.2 nM | 60 ± 12 | 15 ± 6 | 11 ± 3 | 2 ± 1 | 1 ± 0.1 | 85 ± 25 | 29.4 nM and 32.4 nM and 32.3 nM and 32.6 nM | 32 ± 2 | – | – | – | – | – | 68 ± 6 | 87 ± 6 | 74 ± 2 | 84 ± 4 |
| CN1CCN(c2nc(=O)c3c(I)cccc3o2)CC1 [compound 16] | > 10000 nM | – | > 25000 | > 25000 | > 25000 | > 25000 | > 10000 | > 10000 nM | – | – | – | – | – | – | – | – | – | – |
| CN1CCC(c2ccc3c(c2)n(C2CCCC2)c2nc(=O)c4c(Br)cccc4n32)CC1 [compound 3] | 101 nM and 109 nM (2×) and 108 nM and 118 nM (2×) and 103 nM and 112 nM and 115 nM (2×) and 104 nM and 76.8 nM and 91.4 nM and 77.5 nM and 72.4 nM and 95.9 nM and 122 nM and 90.9 nM and 83.6 nM and 106 nM and 89.9 nM and 93.4 nM (2×) and 86.9 nM and 97.7 nM and 84.8 nM and 184 nM and 180 nM and 117 nM and 86 nM and 87.9 nM and 87.4 nM and 189 nM and 202 nM and 148 nM and 124 nM and 121 nM and 136 nM and 97.4 nM and 130 nM and 99.2 nM and 105 nM and 102 nM | 108 ± 30 | > 25000 | 11400 | > 25000 | 22300 | 31 ± 12 | 47 nM (2×) and 96.4 nM and 69.7 nM and 57.6 nM and 57.7 nM and 58.1 nM and 59.4 nM (2×) and 54.3 nM and 59.7 nM and 63.5 nM (2×) and 58 nM and 45.7 nM (2×) and 61 nM and 62.5 nM and 63 nM and 66 nM and 76.9 nM and 76.2 nM and 50.2 nM (2×) and 85.7 nM and 89.5 nM and 39.5 nM and 43.8 nM and 41.8 nM (2×) and 41.3 nM and 35.6 nM and 36.2 nM (2×) and 55 nM (2×) and 47.9 nM and 37.4 nM and 47.3 nM and 34.2 nM and 38 nM and 43.3 nM and 32.2 nM and 42.1 nM and 43.2 nM and 39.4 nM and 37.7 nM and 41.7 nM (2×) and 32.6 nM and 30.6 nM and 34.7 nM and 32.9 nM and 43.9 nM and 57.4 nM and 44.7 nM and 46.2 nM (5×) and 47.6 nM (2×) and 48.7 nM (3×) and 51.6 nM and 50.9 nM and 44.2 nM and 41.9 nM and 46.5 nM and 46.1 nM (2×) and 48.5 nM and 51.2 nM and 50.5 nM and 49.4 nM and 51.5 nM and 52.8 nM and 52.3 nM and 53.6 nM and 53.3 nM and 52.1 nM (2×) and 54.8 nM (2×) and 53.5 nM (2×) and 45.5 nM and 46.3 nM and 53.7 nM and 51.7 nM and 68.5 nM and 52.7 nM and 51.8 nM and 46.9 nM and 45.4 nM and 45.9 nM and 46.6 nM and 42.5 nM and 55.4 nM and 86.5 nM and 52.6 nM and 56.7 nM and 66.2 nM and 63.7 nM and 65.2 nM and 64.5 nM and 64.2 nM and 64.6 nM and 52.2 nM and 55.3 nM (2×) and 96.6 nM and 109 nM and 107 nM and 55.1 nM and 53 nM and 33.2 nM and 32.3 nM and 23.5 nM and 31.2 nM and 34 nM and 96.8 nM and 36 nM and 36.8 nM and 35.3 nM and 36.1 nM and 36.6 nM and 42.7 nM and 44.4 nM (2×) and 78.2 nM and 158 nM and 48.4 nM and 54 nM and 57.8 nM and 53.1 nM and 58.7 nM | 48 ± 17 | – | 82 ± 32 | – | – | – | – | – | – | – |
